This experiment has as its system Aδ- and C-type neurons (human DRG neurons). Description: Electric field stimulation (EFS) live cell calcium imaging of human DRG neurons. The class given is cell-based. Conditions: high voltage 15V/cm supra-threshold stimulation.

Protocol: DRGs from the first thoracic vertebra (T1) through the first sacral vertebra (S1) were used in the present study. Human DRG neurons where isolated from organ donors for which full legal and ethical consent had been obtained. The DRGs were stripped of connective tissue and enzymatically digested at 37° C. for 2 h using AnaBios' proprietary enzyme mixture. Samples were then centrifuged for 2 min at 200×g, supernatant was gently removed, and tissue was washed 4 times, followed by resuspension in DMEM/F12 (Lonza) containing 1% horse serum (Thermo Fisher Scientific). Ganglia were mechanically dissociated by gentle trituration through the fire-polished tip of a sterile glass Pasteur pipette. […] Cells were maintained in culture at 37° C. with 5% CO2 in DMEM/F12 supplemented with 10% horse serum (Thermo Fisher Scientific), 2 mM glutamine, 25 ng/mL hNGF (Cell Signaling Technology, Danvers, Mass.), 25 ng/mL GDNF (Peprotech), and penicillin/streptomycin (Thermo Fisher Scientific). Half of the culture media was replaced with fresh media every 3 days.
Cells were loaded with 3 M Fluo-8-AM (AAT Bioquest) containing 0.1% Pluronic F-127 (Sigma) for 20 min. at room temperature. Extracellular solution contained in (mM): 145 NaCl, 3 KCl, 2 CaCl2), 1 MgCl2, 10 HEPES, 10 glucose adjusted to pH 7.4 with NaOH. […]

With `CCN(CC)CC(=O)Nc1c(C)cccc1C` [lidocaine], the “sensitivity of the maximal response to EFS to lidocaine” value is “exhibited sensitivity”.
